The text below walks through data of publication PMC12072072 (International Journal of Molecular Sciences, 2025).

Where two headings read alike, the source gives them in different places.

Data set [1] relates to CHO (Chinese hamster ovary). As to the kind of experiment: MTT assay, CHO cells. It is filed as cell-based. The settings on record: Cricetulus griseus, CHO, MTT assay, CHO cells, value (standard deviation); read-out: IC50 [μM] (±s) CHO. On the procedure: (§1) Each medium was supplemented with 10% fetal bovine serum, 1% L-glutamine, and 1% penicillin/streptomycin solution. The cell lines were incubated at 37 °C in a humidified atmosphere containing 5% CO2. Cells were counted using the Fuchs–Rosenthal counting chamber (hemocytometer) with modifications.
(§2) The final product of this reaction gives violet formazan crystals. The number of live cells is proportional to the amount of formazan and is represented by the violet dye reagent. The details of the experiments are given, e.g., in [54].
(§3) Statistical analyses for the cytotoxic activity were carried out using the nonparametric Kruskal–Wallis H test for unpaired data and ANOVA Friedman two-way analysis of variance test for paired data. Statistical significance was tested using Dunn’s post-hoc test. The IC50 values compared to the control IC50 were calculated using GraphPad Prism v. 10.1.1. software.
(Tetrazolium assays rely on reduction of a dye to a coloured formazan, in cell work by metabolically active cells.)

For data set [2], the system named is PC-3 (human prostate carcinoma). The data set is described as follows: MTT assay, PC-3 cells. It is filed as cell-based. The settings on record: for IC50: Homo sapiens, PC-3, MTT assay, PC-3 cells, value (standard deviation), read-out: IC50 [μM] (±s) PC-3. On the procedure:
as §1, §2, §3

Data set [3] concerns SKOV-3 (human ovarian carcinoma). As to the kind of experiment: MTT assay, SKOV-3 cells. The format is cell-based. The settings on record: for IC50: Homo sapiens, SK-OV-3, MTT assay, SKOV-3 cells, value (standard deviation), read-out: IC50 [μM] (±s) SKOV-3. On the procedure: as §1, §2, §3
Data set [4] deals with HDFs (human dermal fibroblasts). The data set is described as follows: MTT assay, HDFs (normal cells). The settings on record: Fibroblast, value (standard deviation), read-out: IC50 [μM] (±s) HDFs. It is filed as cell-based. On the procedure:
as §1, §2, §3

The nature of the next data set: Solubility (remark). The format is physicochemical. The settings on record: remark among limitations, solvent not stated.
The next data set has as its system A-549, PC-3, and SKOV-3. As to the kind of experiment: MTT assay, statements over the cancer cell lines together. It is filed as cell-based, human. The settings on record: Homo sapiens, MTT assay; A-549, PC-3 and SKOV-3 together, summary of Table 3; read-out: IC50 stated over the cancer cell lines together. On the procedure:
as §1, §2

Data set [5] relates to A-549 (human lung carcinoma). As to the kind of experiment: MTT assay, A-549 cells. The format is cell-based. To be noted: for IC50: Homo sapiens, A549, MTT assay, A-549 cells, value (standard deviation), read-out: IC50 [μM] (±s) A-549. On the procedure:
as §1, §2, §3

Data set [6] has as its system SKOV-3 (human ovarian carcinoma). The settings on record: MTT assay, SKOV-3 cells; published earlier; ref [41]; read-out: IC50 [μM] (±s) SKOV-3; cited from earlier work.
For data set [7], the system named is HDFs (human dermal fibroblasts). The settings on record: MTT assay, published earlier, ref [41], read-out: IC50 [μM] (±s) HDFs; cited from earlier work.

A word on the IC50: it is the concentration that inhibits the measured activity by half. For the compound `CC1(C)CC[C@@]23CC[C@]4(C)[C@@](OC2=O)(C3C1)[C@@H](Br)CC1[C@@]2(C)CCC(=O)NC(C)(C)C2CC[C@]14C` (stereo partly drawn) [Compound 13, 12α-bromo-3-oxo-3a-aza-A-homoolean-28-oic acid 28β→13β-olide], the half-inhibitory concentration (IC50) was above 100 µM in [1]; 73.1 µM in [2]; 75.8 µM in data set [3]; 89.4 µM in [4]; 11 to 90 µM with A-549, PC-3, and SKOV-3; 89.3 µM in [5]. Besides, the “Selectivity Index (SI) PC-3” value in data set [2] (IC50 of HDFs / IC50 of PC-3) is recorded as 1.22. The “Selectivity Index (SI) SKOV-3” value in data set [3] (IC50 of HDFs / IC50 of SKOV-3) is 1.18. In the data set “Solubility (remark)”, the solubility result is “poor solubility”. Moreover, in data set [5] (IC50 of HDFs / IC50 of A-549), the “Selectivity Index (SI) A-549” value worked out at 1.00.
For the compound `CC1(C)CC[C@@]23CC[C@@]4(C)[C@]5(C)CCC6C(C)(C)C(=O)CC[C@]6(C)C5CC(=O)[C@]4(OC2=O)C3C1` (stereo partly drawn) [Compound 7, 3,12-Dioxoolean-28-oic acid 28β→13β-olide], the IC50 in [1] was above 100 µM; in data set [2], above 100 µM; in data set [3], above 100 µM; in data set [4] it was above 100 µM; in the data set on A-549, PC-3, and SKOV-3, above 100 µM; in data set [5] it was 66.1 µM. Moreover, in the data set “Solubility (remark)”, the solubility result is “poor solubility”.
As for `CC1(C)CC[C@@]23CC[C@@]4(C)[C@]5(C)CCC6C(C)(C)[C@@H](O)CC[C@]6(C)C5C/C(=N\O)[C@]4(OC2=O)C3C1` (stereo partly drawn) [Compound 8, 3β-Hydroxy-12-hydroxyiminoolean-28-oic acid 28β→13β-olide], the IC50 in data set [1] is above 100 µM; in data set [2], above 100 µM; in data set [3], above 100 µM; in data set [4], above 100 µM; in the data set on A-549, PC-3, and SKOV-3, above 100 µM; in data set [5], above 100 µM. Further, the solubility entry in the data set “Solubility (remark)” is “poor solubility”.
For `CC1(C)CC[C@]2(C(=O)O)CC[C@]3(C)C(=CC[C@@H]4[C@@]5(C)CC[C@H](O)C(C)(C)[C@@H]5CC[C@]43C)[C@@H]2C1` [Compound 1, oleanolic acid], the IC50 is 9.16 µM in data set [1], 18.8 µM in data set [6] and 24.9 µM in data set [7].
